Laboratory results: patent publication US10709724B2, “Methods of treating mitochondrial dysfunction” (Ecole Polytechnique Federale de Lausanne (EPFL), priority 2011, dated 2020)
Several values for one entry are separate records, joined by “and”; a condition that tells them apart may be missing. Equal values may be shown once. Entries after “also recorded” stand apart in the source; their conditions may differ.

Columns and labels:
C. elegans [1] = assay: Worm lifespan analysis; type: in vivo; details: for variation compared to control (%): vs N2 + water
Description: Worm Lifespan Analysis Lifespan tests were performed as described in Mouchiroud et al (L. Mouchiroud et al., Pyruvate imbalance mediates metabolic reprogramming and mimics lifespan extension by dietary restriction in Caenorhabditis elegans. Aging Cell 10, 39 (2011)). Briefly, 60-100 animals were used per conditions and scored every other day. All lifespan experiments were performed at 20° C. […] Animals were exposed to compounds during the full life from eggs until death. To ensure a permanent exposure to the compound, plates were changed twice a week. All the compounds used in this study were dissolved in a water stock solution.

C57Bl/6J mice = assay: NAD+ content in mouse tissues after one week of supplemented chow; type: in vivo; details: 400 mg/kg/day in chow; for muscle NAD+ content: quadriceps
Description: Animal Experiments. […] In other animal experiments, 8 weeks-old male C57Bl/6J mice were purchased from Charles River and powder chow (D12450B) and high fat (D12492) diets were from Research Diets Inc (New Brunswick, N.J., USA). 80 ml of water per kg of powder CD were used to make food pellets. 40 ml of water per kg of powder HFD were used to make food pellets. […] Mice were housed separately, had ad libitum access to water and food and were kept under a 12 h dark-light cycle. Mice were fed with homemade pellets from 10 weeks of age. […] All animal experiments were carried out according to local national and EU ethical guidelines. To monitor body weight, mice were weighed and the food consumption was measured each week on the same day. In case of PJ34 treatment, mice received each 12 h (at 7:00 and 19:00) 10 mg/kg PJ34 by intraperitoneal injection for 5 continuous days. In all studies animals were killed (at 14:00) either after CO2 inhalation or cervical dislocation after 6 h of fasting (starting at 8:00), and tissues were collected and processed as specified below. […] Plasma insulin and was determined in heparinized plasma samples using specific ELISA kits (Mercodia). Blood samples were collected in heparinized tubes and plasma was isolated after centrifugation. Plasma parameters were measured using a Cobas c111 (Roche Diagnostics). […] The respiratory quotient was the ratio of CO2 production over O2 consumption. During actimetry, beamline crossings were summarized each 15 minutes.
NAD^+ NAM Determination. NAD^+ levels in cultured cells were determined using a commercial kit (Enzychrom™, BioAssays Systems, CA). […] 70 L of ice-cold 7% perchloric acid was then added and the sample was vortexed and sonicated three times, then centrifuged. Clear supernatant was removed and neutralized by additions of 3 M NaOH and 1 M phosphate buffer (pH=9), then centrifuged. Clear supernatant was injected onto HPLC C-18 column with 20 mM ammonium acetate eluent to separate NAD^+ and NAM from other cellular components, NAD^+ and NAM peaks (260 nm absorbance) were collected. Collections were lyophilized to dryness and subjected to MALDI-TOF analysis. […] Corrections were applied for isotopic abundance.

C. elegans [2] = assay: NAD measurement by HPLC in worms; type: in vivo; details: day 4 of adulthood
Description: Worm Respiration Assays Oxygen consumption was measured using the Seahorse XF24 equipment (Seahorse Bioscience Inc., North Billerica, Mass.) as described in Yamamoto et al. Typically, 200 animals per conditions were recovered from NGM plates with M9 medium, washed three times in 2 mLM9 to eliminate residual bacteria, and resuspended in 500 μL M9 medium. Worms were transferred in 24-well standard Seahorse plates (#100777-004) (50 worms per well) and oxygen consumption was measured 6 times. Respiration rates were normalized to the number of worms in each individual well. NAD measurement by HPLC For NAD+ quantification, approximately 1000 worms were collected in M9 buffer, washed five times to remove residual bacteria and flash-frozen in liquid nitrogen and stored at −80° C. until analysis. Extraction was started by adding 250 μl of 1.6M perchloric acid on frozen samples, followed by extensive homogenization in a Qiagen tissuelyser, and centrifugation at 20.000 g for 15 min. The supernatant was recovered and neutralized with a 3M potassium carbonate solution. […]

C. elegans [3] = assay: Worm respiration assay (Seahorse XF24); type: in vivo; details: day 3 adult worms
Description: Worm Respiration Assays Oxygen consumption was measured using the Seahorse XF24 equipment (Seahorse Bioscience Inc., North Billerica, Mass.) as described in Yamamoto et al. Typically, 200 animals per conditions were recovered from NGM plates with M9 medium, washed three times in 2 mLM9 to eliminate residual bacteria, and resuspended in 500 μL M9 medium. Worms were transferred in 24-well standard Seahorse plates (#100777-004) (50 worms per well) and oxygen consumption was measured 6 times. Respiration rates were normalized to the number of worms in each individual well. NAD measurement by HPLC For NAD+ quantification, approximately 1000 worms were collected in M9 buffer, washed five times to remove residual bacteria and flash-frozen in liquid nitrogen and stored at −80° C. until analysis. Extraction was started by adding 250 μl of 1.6M perchloric acid on frozen samples, followed by extensive homogenization in a Qiagen tissuelyser, and centrifugation at 20.000 g for 15 min. The supernatant was recovered and neutralized with a 3M potassium carbonate solution. After centrifugation, 100 μl of supernatant was filtered and used for NAD measurement using an HPLC system (Agilent) with a Supelco LC-18-T column (Sigma), as described in Yoshino et al. (Yoshino, K. F. Mills, M. J. Yoon, S. Imai, Nicotinamide Mononucleotide, a Key NAD(+) Intermediate, Treats the Pathophysiology of Diet- and Age-Induced Diabetes in Mice. Cell Metab 14, 528 (2011)).

C. elegans [4] = assay: Quantitative RT-PCR in worms; type: in vivo
Description: mRNA and mtDNA Analysis. Total RNA was prepared using TRIzol (Invitrogen) according to the manufacturer's instructions. RNA was treated with DNase, and 2 μg of RNA was used for reverse transcription (RT). cDNA was purified on QIAquick PCR cleanup columns (Qiagen, Valencia, Calif., USA). 50× diluted cDNA was used for RT-quantitative PCR (RT-VCR) VCR) reactions (Bai et al., 2007). The RT-qPCR reactions were performed using the Light-Cycler system (Roche Applied Science) and a qPCR Supermix (Qiagen) with the primers for mice summarized in Table 1 and 4, and with the primers for worms summarized on Table 7. mtDNA quantification was performed as described (Lagouge et al., 2006) with the primers indicated in Table 2 and 5.

C. elegans [5] = assay: Confocal microscopy of mitochondria in body wall muscle (pmyo-3::mito::GFP reporter); details: in vivo
Description: Confocal Microscopy and Image Processing Worms were immobilized with 6 mM solution of tetramisole hydrochloride (Sigma, Buchs, Switzerland) in M9 and mounted on 6% agarose pads on glass slides. Images of worms were acquired using Zeiss LSM 700 Upright confocal microscope (Carl Zeiss AG, Oberkochen, Germany) under non-saturating exposure conditions. All the snapshots were taken from the same part of C. elegans: muscles from the upper part of the worm, excluding the regions of oesophagus and vulva. For each condition multiple worms were observed and imaged. Image processing was performed with the Fiji software. One of the critical issues during the imaging process was the position of the worm, as it influences the level of background. For the uniformity of the represented images, contrast and brightness were adjusted in order, to eliminate the undesirable background signal. Neither of these manipulations was affecting the mitochondrial shape. Tracing of the mitochondrial network contour was done by the use of Gaussian blur filter followed by the application of Laplacian operator.

GPR109A = biological target: T1, GPR109A (Homo sapiens, UniProt Q8TDS4); type: cell-based; details: GPR109A-expressing Chem-4 cells
T1 construct: host or cells: Chem-4 cells (Ready-to-Assay GPR109A Nicotinic Acid Receptor Cells)
Description: GPR109A—Calcium Mobilization Assay. Ready-to-Assai™ GRP109A Nicotinic Acid Receptor Cells were used to measure calcium mobilization as specified by the manufacturer (Millipore). Calcium flux was determined using excitation at 340 and 380 nm in a fluorescence spectrophotometer (Victor X4, Perkin Elmer) in a 180 seconds time course, adding the ligand at 60 seconds. Internal validation was made using 0.1% Triton X-100 for total fluorophore release and 10 mM EGTA to chelate free calcium. Similarly, GPR109A specificity was internally validated using control cells devoid of GRP109A overexpression. Liver triglyceride measurement Liver triglycerides were measured from 20 mg of liver tissue using a variation of the Folch method, as described in Bai et al. (Bai et al., PARP-2 regulates SIRT1 expression and whole-body energy expenditure. (2011). Cell Metab 13, 450-460.

C2C12 myotubes = assay: Intracellular NAD+ content in C2C12 myotubes treated with PARP inhibitors; type: cell-based
Description: Cell Culture, Transfection, Adenoviral Infection and Mitochondrial Characterization. HEK293T, MEF and C2C12 cells were cultured in DMEM (4.5 g/l glucose, 10% FCS). PARP-1^+/+ and PARP-1^−/− MEFs were prepared as described in (Menissier-de Murcia et al., 1997). SIRT1 and MEFs were kindly provided by Fred Alt (Chea et al., 2005). SIRT3 MER were established according to standard techniques from conditional SERT3^−/− mice. (Picard, F., Gehin, M., Annicotte, J., Rocchi, S., Champy, M. F., O'Malley, B. W., Chambon, P., and Auwerx, J. (2002). SRC-1 and TIF2 control energy balance between white and brown adipose tissues. Cell 111, 931-941.) Deletion of the SIRT3 gene was induced via infection with adenovirus encoding for the Cre recombinase. HEK293T cells were transfected using JetPei reagent (Polyplus Transfections, Illkirch, France) according to the manufacturer's instructions. C2C12 cells were differentiated in DMEM (4.5 g/L glucose, 2% horse serum) after reaching confluency for 2 days, followed by 2 days of PJ34 treatment (10 μM). PARP-1 shRNA constructs were described in (Shah et al., 2005). Human PARP-1 and siRNAs were obtained from Dharmacon (Thermo Scientific). The adenovirus encoding for FLAG-HA-PGC-1α, control and SIRT1 shRNAs were a kind gift from Pere Puigserver and were used (MOI=100) in C2C12 myotubes as described (Canto et al., 2009). Mitochondrial charge determination was performed as described (Bai et al., 2001) and DNA strand breaks were quantified by TUNEL assays according to the manufacturer's instructions (Millipore).
NAD^+ NAM Determination. NAD^+ levels in cultured cells were determined using a commercial kit (Enzychrom™, BioAssays Systems, CA). For tissue samples NAD^+ and NAM levels were determined as described in (Sauve et al., 2005). In brief, to a weighed aliquot of frozen pulverized tissue we added as standards, ^18O-NAD^+ (typically 2.00 nmol) and ^18O-NAM (typically 2.00 nmol). 70 L of ice-cold 7% perchloric acid was then added and the sample was vortexed and sonicated three times, then centrifuged. Clear supernatant was removed and neutralized by additions of 3 M NaOH and 1 M phosphate buffer (pH=9), then centrifuged. Clear supernatant was injected onto HPLC C-18 column with 20 mM ammonium acetate eluent to separate NAD^+ and NAM from other cellular components, NAD^+ and NAM peaks (260 nm absorbance) were collected. Collections were lyophilized to dryness and subjected to MALDI-TOF analysis. For NAD^+ measurement, ratio of intensities for m/z=664 and 666 peaks, corresponding to ^16O- and ^18O-NAD^+ isotopomers, was multiplied by 2.00 nmol and then divided by tissue weight to determine NAD+ concentration in the sample. For NAM the ratio of intensities for m/z=123 and 125 peaks, corresponding to ^16O- and ^18O-NAM isotopomers, was multiplied by 2.00 nmol and then divided by tissue weight to determine NAM concentration in the sample. Corrections were applied for isotopic abundance. Other NAD metabolites were determined as previously described (Yang and Sauve, Synthesis of nictotinamide riboside and derivatives: effective agents for increasing nictinomide adenine dinucleotide concentrations in mammalian cells. J Med Chem 50, 6458-6461 (2006)).

T1 sequence (Q8TDS4 whole entry): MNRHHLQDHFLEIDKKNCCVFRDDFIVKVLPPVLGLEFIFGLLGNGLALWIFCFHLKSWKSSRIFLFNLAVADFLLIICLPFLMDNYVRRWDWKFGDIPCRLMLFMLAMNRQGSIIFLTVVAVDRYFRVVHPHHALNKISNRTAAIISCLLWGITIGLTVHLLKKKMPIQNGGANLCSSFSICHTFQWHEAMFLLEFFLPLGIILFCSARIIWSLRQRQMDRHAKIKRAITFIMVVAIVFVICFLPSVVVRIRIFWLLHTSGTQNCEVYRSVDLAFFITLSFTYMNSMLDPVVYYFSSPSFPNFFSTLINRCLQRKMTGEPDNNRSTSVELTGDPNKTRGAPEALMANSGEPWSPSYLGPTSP

C[C@]1(c2nc3c(C(N)=O)cccc3[nH]2)CCCN1 [ABT-888]
lifespan extension (C. elegans [1]; 100 nM (FIG. 34B)): 15% | mean lifespan ± SE (C. elegans [1]; N2, 100 nM, listed as ABT): 22.3 ± 1.01 days and 22.5 ± 1.05 days | mean lifespan ± SE (C. elegans [1]; N2, 500 nM): 22.1 ± 1.20 days | variation compared to control (%) (C. elegans [1]; N2, 500 nM): +13.9% | mean lifespan ± SE (C. elegans [1]; N2, 1000 nM): 20.0 ± 1.23 days | variation compared to control (%) (C. elegans [1]; N2, 1000 nM): +3.6%

O=C(O)c1cccnc1 [NA, nicotinic acid, reference compound]
muscle NAD+ content (C57Bl/6J mice): significantly enhanced muscle NAD^+ content

NC(=O)c1cccnc1 [NAM, nicotinamide]
NAD+ levels in C. elegans (C. elegans [2]): increased NAD+ levels | oxygen consumption (respiration) (C. elegans [3]): increased respiration; also recorded: Oxygen consumption was increased | expression of genes of mitochondrial oxidative metabolism (cts-1, cox-4) (C. elegans [4]; day 3 of adulthood): trend for increased cts-1 expression | daf-16 expression (C. elegans [4]; in vivo): without affecting daf-16 mRNA levels; also recorded: daf-16 was unchanged | sod-3 expression (C. elegans [4]; in vivo): significantly higher sod-3 expression; also recorded: expression of sod-3 was increased | increase of worm lifespan (C. elegans [1]; FIG. 39B): 18% | mean lifespan ± SE (C. elegans [1]; N2, 200 nM): 23.5 ± 1.03 days | variation compared to control (%) (C. elegans [1]; N2, 200 nM): +18.1% | mean lifespan ± SE (C. elegans [1]; N2, 500 nM): 22.6 ± 0.92 days | variation compared to control (%) (C. elegans [1]; N2, 500 nM): +13.5% | mean lifespan ± SE (C. elegans [1]; N2, 1000 nM): 21.8 ± 0.85 days | variation compared to control (%) (C. elegans [1]; N2, 1000 nM): +9.5% | lifespan in sir-2.1(ok434) mutant / sir-2.1 dependence (C. elegans [1]; sir-2.1(ok434) mutant worms): sir-2.1-dependent fashion | lifespan (C. elegans [1]; wild type N2 worms): extended lifespan | mitochondrial content in body wall muscle (C. elegans [5]): increase muscle mitochondrial content; also recorded: increased mitochondrial content in body wall muscle | mitochondrial morphology in body wall muscle (C. elegans [5]): affect mitochondrial morphology

NC(=O)c1ccc[n+]([C@@H]2O[C@H](COP(=O)([O-])O)[C@@H](O)[C@H]2O)c1 [NMN, nicotinamide mononucleotide, reference compound]
GPR109A activation (calcium flux) (GPR109A): did not activate GPR109A | NAD+ levels in liver (C57Bl/6J mice): increased NAD^+ levels in liver | muscle NAD+ content (C57Bl/6J mice): only NR and NA significantly enhanced muscle NAD^+ content

O=C1N=C2SCC=C2c2ccccc21 [TIQ-A]
intracellular NAD+ content upon PARP inhibition (C2C12 myotubes): confirmed the increase in NAD^+ content
